Here are results for 14 molecules from patent US7482379B2, “Propenoyl hydrazides” (priority 2004, dated 2009).

Assay [1] concerns the target S. mansoni legumain (Schistosoma mansoni, UniProt P09841, N192C). Put plainly: S. mansoni legumain (SmAE) inhibition assay. Format: biochemical.
The target of assay [2] is T1, Papain (Carica papaya, UniProt P00784).
T1 sequence (P00784 134-345): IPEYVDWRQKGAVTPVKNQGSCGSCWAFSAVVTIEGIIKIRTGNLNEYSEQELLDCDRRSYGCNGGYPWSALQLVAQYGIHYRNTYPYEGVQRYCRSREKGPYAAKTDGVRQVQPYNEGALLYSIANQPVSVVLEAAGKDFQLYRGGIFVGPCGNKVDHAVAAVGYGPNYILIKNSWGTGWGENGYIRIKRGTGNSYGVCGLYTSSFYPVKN
Put plainly: Papain incubation inhibition assay. It is filed as biochemical. To be noted: for kinact/KI: pH 7.5, read-out: kobs/[I] Papain. As to the method:
Pseudo first-order inactivation rate constants were obtained from plots of ln vt/vo versus time.
The incubation method was also used for papain. The inhibition incubation buffer for papain was 50 mM Hepes buffer at pH 7.5, containing 2.5 mM DTT and 2.5 mM EDTA. The assay used the substrate Z-Phe-Arg-pNA (53.7 μM) in the same buffer. The approximate concentration of papain added to the incubation buffer was 0.29 mg/mL. The release of p-nitroanilide was monitored at 405 nm with a Molecular Devices Thermomax microplate reader.

Assay [3] has as its target Gingipain K (Porphyromonas gingivalis, UniProt Q51817). Briefly: biochemical. It is filed as biochemical. Particulars: for k2 Gingipain K: Table 3, Suc-Ala-Phe-Lys-AMC substrate, pH 8.0; for kinact/KI: pH 8, read-out: kobs/[I] Gingipain K.
In assay [4] the test system is Gingipain R. Briefly: Gingipain R inhibition. It is filed as biochemical. To be noted: Table 3.
The target in assay [5] is T2, Cathepsin B (Homo sapiens, UniProt P07858). Put plainly: Cathepsin B incubation inhibition assay. To be noted: for kobs/[I] Cathepsin B: Table 5, gingipain and clostripain specific inhibitors. It is filed as biochemical. Here is the method:
Papain and Cathepsin B. The incubation method was used to measure the irreversible inhibition of papain and cathepsin B. […] Pseudo first-order inactivation rate constants were obtained from plots of ln vt/vo versus time.

The target of assay [6] is Clostripain (Hathewaya histolytica, UniProt P09870). Particulars: Table 3; Z-Phe-Arg-AMC substrate; pH 7.6.
From the text: Clostripain. […] All data obtained was processed by pseudo-first order kinetics,
Assay [7] concerns Trypsin. Particulars: Table 5, gingipain and clostripain specific inhibitors.
Method: Trypsin. Trypsin was purchased from Sigma Chemical Co. (St. Louis, Mo.) as a solid which was dissolved in a solution of 1 mM HCl at a concentration of 1 μM, kept at 0° C., and used immediately. […] The enzymatic assay was followed for 10 min with the 2.5 mM stock inhibitor solution and 1 mM stock substrate solution. The data was processed as a competitive reversible inhibitor by a Dixon plot.
Assay [8] deals with clan CD proteases. Particulars: background art; cited from earlier work.
Assay [9] deals with S. mansoni legumain. To be noted: background art, cited from earlier work.
In assay [10] the target is T3, human legumain (Homo sapiens, UniProt Q99538).
T3 sequence (Q99538 18-323): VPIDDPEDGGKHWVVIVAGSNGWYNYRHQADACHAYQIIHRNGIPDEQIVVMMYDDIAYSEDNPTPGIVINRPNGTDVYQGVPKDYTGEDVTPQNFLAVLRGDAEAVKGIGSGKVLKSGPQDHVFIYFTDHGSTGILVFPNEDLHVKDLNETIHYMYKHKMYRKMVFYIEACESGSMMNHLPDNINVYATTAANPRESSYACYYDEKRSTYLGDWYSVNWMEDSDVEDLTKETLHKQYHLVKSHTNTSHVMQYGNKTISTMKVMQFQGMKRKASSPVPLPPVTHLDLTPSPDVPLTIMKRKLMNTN
To be noted: synthetic substrate; background art; cited from earlier work.

Assay [11] deals with T2, Cathepsin B. To be noted: irreversible inhibition; background art; cited from earlier work.
For assay [12], the target named is cathepsin L (Homo sapiens, UniProt P07711). Particulars: irreversible inhibition; background art; cited from earlier work.

SMILES strings stand for the structures. Peptide text beside a SMILES is read from it. * marks the point of attachment. AMC = Cc1cc(=O)oc2cc(N*)ccc12; Cbz = O=C(OCc1ccccc1)*

Clostripain, sequence (P09870 51-526): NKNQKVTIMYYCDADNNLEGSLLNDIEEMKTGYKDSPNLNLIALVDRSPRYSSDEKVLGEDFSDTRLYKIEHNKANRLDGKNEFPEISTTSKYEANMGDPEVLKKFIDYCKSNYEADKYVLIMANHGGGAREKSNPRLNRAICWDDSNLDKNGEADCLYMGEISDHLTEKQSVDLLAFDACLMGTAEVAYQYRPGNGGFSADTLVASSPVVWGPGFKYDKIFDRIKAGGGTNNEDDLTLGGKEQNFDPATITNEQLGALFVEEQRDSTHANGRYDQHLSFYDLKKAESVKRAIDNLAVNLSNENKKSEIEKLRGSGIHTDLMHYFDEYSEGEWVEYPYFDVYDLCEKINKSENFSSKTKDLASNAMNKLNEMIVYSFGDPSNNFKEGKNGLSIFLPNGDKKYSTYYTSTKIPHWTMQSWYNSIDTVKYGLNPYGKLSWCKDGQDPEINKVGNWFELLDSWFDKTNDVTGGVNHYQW
S. mansoni legumain (Schistosoma mansoni, UniProt P09841, N192C), sequence (P09841 32-291 N192C): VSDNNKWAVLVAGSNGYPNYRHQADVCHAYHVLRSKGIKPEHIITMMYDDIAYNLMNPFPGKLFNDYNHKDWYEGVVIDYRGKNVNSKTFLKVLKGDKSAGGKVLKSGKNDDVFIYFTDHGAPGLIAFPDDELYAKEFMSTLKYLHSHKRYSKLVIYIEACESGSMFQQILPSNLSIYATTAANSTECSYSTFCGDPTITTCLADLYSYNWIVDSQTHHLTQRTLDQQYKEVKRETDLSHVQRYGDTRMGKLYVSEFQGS
Gingipain K, sequence (Q51817 229-1732 limits assumed): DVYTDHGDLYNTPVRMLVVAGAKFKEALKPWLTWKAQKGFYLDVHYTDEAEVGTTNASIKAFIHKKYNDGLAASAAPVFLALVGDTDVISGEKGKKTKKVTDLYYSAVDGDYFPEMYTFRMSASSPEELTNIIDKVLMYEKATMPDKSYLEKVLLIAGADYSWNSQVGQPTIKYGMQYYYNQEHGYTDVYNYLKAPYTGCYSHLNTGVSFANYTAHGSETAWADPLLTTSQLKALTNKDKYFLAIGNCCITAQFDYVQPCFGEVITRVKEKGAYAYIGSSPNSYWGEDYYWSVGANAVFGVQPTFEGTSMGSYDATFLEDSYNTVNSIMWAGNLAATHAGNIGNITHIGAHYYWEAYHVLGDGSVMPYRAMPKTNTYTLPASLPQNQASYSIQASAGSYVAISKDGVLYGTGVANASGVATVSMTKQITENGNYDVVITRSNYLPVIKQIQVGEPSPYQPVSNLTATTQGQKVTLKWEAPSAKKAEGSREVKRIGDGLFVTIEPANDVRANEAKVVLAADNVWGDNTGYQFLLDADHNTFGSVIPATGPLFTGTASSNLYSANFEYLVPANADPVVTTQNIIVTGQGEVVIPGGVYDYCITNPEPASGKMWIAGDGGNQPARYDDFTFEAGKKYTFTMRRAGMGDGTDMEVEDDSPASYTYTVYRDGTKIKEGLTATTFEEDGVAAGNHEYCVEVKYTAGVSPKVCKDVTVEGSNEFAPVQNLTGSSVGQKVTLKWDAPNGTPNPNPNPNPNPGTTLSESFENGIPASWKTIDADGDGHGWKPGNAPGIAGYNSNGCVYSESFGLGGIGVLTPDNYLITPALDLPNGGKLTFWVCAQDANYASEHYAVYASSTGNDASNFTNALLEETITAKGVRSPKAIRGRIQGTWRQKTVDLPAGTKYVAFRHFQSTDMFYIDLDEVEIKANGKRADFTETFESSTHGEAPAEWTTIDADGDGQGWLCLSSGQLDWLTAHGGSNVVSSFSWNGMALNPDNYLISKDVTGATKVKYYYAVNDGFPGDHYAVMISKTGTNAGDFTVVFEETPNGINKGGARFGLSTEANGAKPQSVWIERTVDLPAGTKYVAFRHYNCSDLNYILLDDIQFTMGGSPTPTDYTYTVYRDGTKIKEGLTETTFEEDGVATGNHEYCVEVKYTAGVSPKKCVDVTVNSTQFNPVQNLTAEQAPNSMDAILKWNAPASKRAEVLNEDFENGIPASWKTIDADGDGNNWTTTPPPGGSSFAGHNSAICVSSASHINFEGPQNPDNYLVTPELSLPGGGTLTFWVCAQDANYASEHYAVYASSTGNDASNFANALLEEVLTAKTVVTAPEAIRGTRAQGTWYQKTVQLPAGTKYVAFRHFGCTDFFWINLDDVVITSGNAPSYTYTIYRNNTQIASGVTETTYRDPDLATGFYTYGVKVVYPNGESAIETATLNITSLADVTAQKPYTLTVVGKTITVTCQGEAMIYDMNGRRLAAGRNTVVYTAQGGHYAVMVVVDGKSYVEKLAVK
cathepsin L, sequence (P07711 114-333, species assumed): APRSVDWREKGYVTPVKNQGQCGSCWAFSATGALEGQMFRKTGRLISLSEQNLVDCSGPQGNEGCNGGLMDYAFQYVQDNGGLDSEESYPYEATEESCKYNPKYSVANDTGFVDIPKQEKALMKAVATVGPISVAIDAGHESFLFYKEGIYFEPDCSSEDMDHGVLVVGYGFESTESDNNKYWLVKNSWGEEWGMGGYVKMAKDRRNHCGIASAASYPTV

As for `C[C@H](NC(=O)OCc1ccccc1)C(=O)N[C@@H](C)C(=O)NN(CC(N)=O)C(=O)/C=C/C(=O)NCCc1ccccc1` [Cbz-Ala-Ala-AAsn-CH═CH—CONHCH2CH2Ph, N^2—(N-Benzyloxycarbonylalanylalanyl)-N^1-carbamoylmethyl-N^1-trans-(3-phenethylcarbamoylpropenoyl)hydrazine], the IC50 in assay [1] worked out at 600 nM. Further, the “kobs/[I] Papain” value in assay [2] (Table 6, legumain specific inhibitors, NI = no inhibition after 20 minutes of incubation) came out at 12 M⁻¹ s⁻¹. Also, the kinact/KI in assay [2] was 12 M⁻¹ s⁻¹.
Turning to `CCOC(=O)C=CC(=O)N(CCCCN)NC(=O)[C@H](CC(C)C)NC(=O)CCc1ccccc1` [PhPr-Leu-ALys-CH═CH—COOEt], in assay [3], the “k2 Gingipain K” value is reported as 3,280,000 M^−1s^−1. Further, in assay [4], the “k2 Gingipain R” value stood at 289 M⁻¹ s⁻¹. Besides, in assay [5], the “kobs/[I] Cathepsin B” value came out at 9 M⁻¹ s⁻¹. Also, the “k2 Clostripain” value in assay [6] is 40,750 M^−1s^−1. In addition, the “kobs/[I] Trypsin” value in assay [7] is 17 M⁻¹ s⁻¹.
As for `C[C@H](NC(=O)OCc1ccccc1)C(=O)N[C@@H](C)C(=O)NN(CC(N)=O)C(=O)/C=C/C(=O)N(Cc1ccccc1)Cc1ccccc1` [Cbz-Ala-Ala-AAsn-CH═CH—CON(Bzl)2, N^2—(N-BenzyloxycarbonylaIanylalanyl)-N^1-carbamoylmethyl-N^1-trans-(3-dibenzylcarbamoylpropenoyl)hydrazine], in assay [1], the IC50 was determined as 45 nM. Further, the kinact/KI in assay [1] (read-out: kobs/[I]) amounted to 5800 M⁻¹ s⁻¹; in [3] it was 2 M⁻¹ s⁻¹; in [2], 1 M⁻¹ s⁻¹.
With `CC(C)CCNC(=O)[C@H](CC(C)C)NC(=O)[C@H]1O[C@@H]1C(=O)O` [Example E-64c, E-64c], the “inhibition of clan CD proteases” value in [8] was “do not inhibit”.
Take `CC(C)C[C@H](NC(=O)CCc1ccccc1)C(=O)NN(CCCN)C(=O)C=CC(=O)N(Cc1ccccc1)Cc1ccccc1` [PhPr-Leu-AOrn-CH═CH—CON(CH2Ph)2]: the “k2 Gingipain K” value in [3] is given as 61,600 M^−1s^−1. Moreover, in assay [4], the “k2 Gingipain R” value was determined as 541 M⁻¹ s⁻¹. Further, the “k2 Clostripain” value in assay [6] was determined as 541 M⁻¹ s⁻¹.
Turning to `CC(C)C[C@H](NC(=O)CCc1ccccc1)C(=O)NN(CCCCN)C(=O)C=CC(=O)N(Cc1ccccc1)Cc1ccc2ccccc2c1`, the “k2 Gingipain K” value in assay [3] is 811,000 M^−1s^−1. The “k2 Gingipain R” value in assay [4] is 98 M⁻¹ s⁻¹. The “k2 Clostripain” value in assay [6] was 17,500 M^−1s^−1.
Consider `Cc1cc(=O)oc2cc(NC(=O)[C@H](CC(N)=O)NC(=O)[C@H](C)NC(=O)[C@H](C)NC(=O)OCc3ccccc3)ccc12` [Cbz-Ala-Ala-Asn-AMC] (Cbz-Ala-Ala-Asn-{AMC}), for which the Km was 90 µM in assay [9] (synthetic substrate) and 80 µM in assay [10].
`CCOC(=O)C=CC(=O)N(CCCN)NC(=O)[C@H](CC(C)C)NC(=O)CCc1ccccc1` [PhPr-Leu-AOrn-CH═CH—COOEt]: the “k2 Gingipain K” value in [3] was 927,000 M^−1s^−1. For the same molecule, the “k2 Gingipain R” value in assay [4] was 32 M⁻¹ s⁻¹. Further, the “kobs/[I] Cathepsin B” value in assay [5] turned out to be 3 M⁻¹ s⁻¹. The “k2 Clostripain” value in assay [6] amounted to 788 M⁻¹ s⁻¹.
`CC(C)C[C@H](NC(=O)[C@H]1O[C@@H]1C(=O)O)C(=O)NCCCCN=C(N)N` [Example E-64, E-64]: in assay [9], the “inhibition of S. mansoni legumain” value is “not inhibited”.
As for `CC(C)CC(NC(=O)CCc1ccccc1)C(=O)NN(CCCCN)C(=O)C=CC(=O)N(C)Cc1ccccc1` (centres unmarked) [PhPr-Leu-ALys-CH═CH—CON(Me)CH2Ph], the “k2 Gingipain K” value in assay [3] is recorded as 1,360,000 M^−1s^−1. In assay [4], the “k2 Gingipain R” value was 79 M⁻¹ s⁻¹. Moreover, the “k2 Clostripain” value in assay [6] is 6,000 M^−1s^−1.
As to `CC(C)CCNC(=O)[C@H](CC(C)C)NC(=O)/C=C/C(=O)O` (stereo in doubt) [fumarate derivative of E-64c, trans-HOOCCH═CH—CO-Leu-NH(CH2)2CH(CH3)2], in assay [11], the “kapp cathepsin B” value is 625 M⁻¹ s⁻¹. Also, the “kapp cathepsin L” value in [12] is 2272 M⁻¹ s⁻¹. Further, the “inhibition of clan CD proteases” value in [8] is recorded as “do not inhibit”.
Consider `CCOC(=O)/C=C/C(=O)N(CC(N)=O)NC(=O)[C@H](C)NC(=O)[C@H](C)NC(=O)OCc1ccccc1` [Cbz-Ala-Ala-AAsn-CH═CH—COOEt, N^2—(N-BenzyloxycarbonylalanylaIanyl)-N^1-carbamoylmethyl-N^1-trans-(3-ethylesterpropenoyl)hydrazine], for which the kinact/KI in [3] amounted to 6 M⁻¹ s⁻¹; in assay [5] (pH 6, read-out: kobs/[I] Cathepsin B), 1 M⁻¹ s⁻¹.
As to `CC(C)C[C@H](NC(=O)CCc1ccccc1)C(=O)NN(CCCCN)C(=O)C=CC(=O)NCc1ccccc1` [PhPr-Leu-ALys-CH═CH—CONHCH2Ph], in [3], the “k2 Gingipain K” value is 236,000 M^−1s^−1. Besides, the “k2 Gingipain R” value in [4] was determined as 20 M⁻¹ s⁻¹. The “k2 Clostripain” value in [6] is 1,050 M^−1s^−1.
Regarding `C[C@H](NC(=O)[C@H](Cc1ccccc1)NC(=O)OCc1ccccc1)C(=O)C=[N+]=[N-]` [Cbz-Phe-Ala-CHN2], the “inhibition of S. mansoni legumain” value in [9] is “not inhibited”.

By IC50 is commonly meant the concentration that inhibits the measured activity by half. Usually Km stands for the concentration of substrate that gives half-maximal velocity.
